Where a name gives a salt, the structure may show the parent alone.
Test system: clonic seizures caused by pentylenetetrazole
Experiment: Protection against clonic seizures caused by pentylenetetrazole in rats (oral)
Assay type: in vivo
Conditions: Rattus norvegicus, rats (at least 5 per group), 2% starch vehicle, pentylenetetrazole 21 to 23 mg./kg. intravenously at estimated time of peak effect, protection of 50% of animals, read-out: MEDIAN EFFECTIVE ORAL DOSE ED50
Method: The anti-anxiety properties of the compounds of the present invention have been established in a test which indicates anxiolytic activity by a measure of protection from convulsions resulting from the administration of pentylenetetrazole. Graded dose levels of the compounds of this invention are administered orally, in a 2% starch vehicle, to groups of at least 5 rats. At the estimated time of peak effect, the rats are treated intravenously with pentylenetetrazole at a dose of 21 to 23 mg./kg. of body weight. This dose is estimated to cause clonic seizures in 99% of unprotected rats. The effective dose of the test compound for protection of 50% of the animals is calculated by the method of D. H. Finney in Statistical Methods in Biological Assay, Second Edition, Hafner Publishing Co., New York, 1964, pp. 456- 457. Representative results are given in the table which follows in comparison with Librium (chlordiazepoxide) or Valium (diazepam), all of which were tested in exactly the same manner. It has been reported [R. T. Hill and D. H. Tedeschi, "Animal Testing and Screening Procedures in Evaluating Psychotropic Drugs" in An Introduction to Psychopharmacology, Eds. R. R. Rech and K. E. Moore, Raven Press, New York, pp. 237-288 (1971)] that there is a high degree of correlation between antagonism of pentylenetetrazole seizures in rats and antianxiety effects in higher warm-blooded animals.

SMILES: CN1C(=O)C2CCCN2Cc2ccccc21 (racemic) [Racemic 1,2,3,5,10,11a-hexahydro-10-methyl-11H-pyrrolo[2,1-c][1,4]benzodiazepin-11-one hydrochloride]
- ED50: 66 mg/kg

SMILES: CN1C(=O)C2CCCN2Cc2cc(Cl)ccc21 (racemic) [Racemic 7-chloro-1,2,3,5,10,11a-hexahydro-10-methyl-11H-pyrrolo[2,1-c][1,4]benzodiazepin-11-one hydrochloride]
- ED50: 91 mg/kg

SMILES: CN1C(=O)[C@@H]2CCCN2Cc2ccccc21 [Dextro 1,2,3,5,10,11a-hexahydro-10-methyl-11H-pyrrolo[2,1-c][1,4]-benzodiazepin-11-one hydrochloride]
- ED50: 15 mg/kg

SMILES: Cc1ccc2c(c1)CN1CCC[C@H]1C(=O)N2C [Dextro 7,10-dimethyl-1,2,3,5,10,11a-hexahydro-11H-pyrrolo[2,1-c][1,4]benzodiazepin-11-one hydrochloride]
- ED50: 32 mg/kg

SMILES: CN1C(=O)[C@@H]2CCCN2Cc2cc(Cl)ccc21 [Dextro 7-chloro-1,2,3,5,10,11a-hexahydro-10-methyl-11H-pyrrolo[2,1-c][1,4]benzodiazepin-11-one hydrochloride]
- ED50: 80 mg/kg

SMILES: CNC1=Nc2ccc(Cl)cc2C(c2ccccc2)=[N+]([O-])C1 [Librium (chlordiazepoxide), chlordiazepoxide, reference compound]
- ED50: 2.5 mg/kg

SMILES: CN1C(=O)CN=C(c2ccccc2)c2cc(Cl)ccc21 [Valium (diazepam), diazepam, reference compound]
- ED50: 1.8 mg/kg

— patent US3947408A, “Pyrrolo-benzodiazepines, method of preparation and method of use” (American Cyanamid Company, priority 1974, dated 1976)
